Measured values from US8129427B2, “2-phenylethylamino derivatives as calcium and/or sodium channel modulators” (Newron Pharmaceuticals S.p.A., priority 2005, dated 2012).

Tested on: amphetamine-chlordiazepoxide induced increase in locomotor activity in mice
Test: Amphetamine and chlordiazepoxide-induced hyperlocomotion in mice
Assay type: in vivo, mouse
Conditions: test compound 5 mg/kg given twice, FIG. 1
Procedure: In this model, mice are treated with a mixture of d-amphetamine plus an anxiolytic dose of the benzodiazepine, chlordiazepoxide (Rushton R, Steinberg H. Combined effects of chlordiazepoxide and d-amphetamine on activity of rats in an unfamiliar environment. Nature 1966; 211:1312-3; R. Arban, G. Maraia, K. Brackenborough, L. Winyard, A. Wilson, P. Gerrard, C. Large. Evaluation of the effects of lamotrigine, valproate and carbamazepine in a rodent model of mania Behavioural Brain Research, 158: 123-132). The model has been claimed to mimic some aspects of mania in bipolar disorder. Importantly, the hyperactivity induced by the mixture of d-amphetamine and chlordiazepoxide could be prevented by prior administration of the established mood stabilizer, lithium, as well as other mood stabilizers drugs (e.g. magnesium valproate and carbamazepine). […]
Amphetamine (AMP) (2.5 mg/kg) plus chlordiazepoxide hydrochloride (CDZ) (3 mg/kg/ip) were administered to male Albino Swiss mice (25-32 g) in a volume of 10 ml/kg. The locomotor activity was recorded using Opto-M3 System (Columbus Instruments) which is multi-channel activity monitor. […] The locomotor activity (ambulation and total activity count) was evaluated for 30 min. […]
Statistical analysis: the data were evaluated by an analysis of variance (ANOVA), followed, when appropriate, by individual comparison with the control using Dunnett's test. […]

## CCCCOc1cccc(CCN(CC(=O)N(C)C)CC2CCOC2)c1.Cl (racemic) [Example 96, 2-[[2-(3-Butoxy-phenyl)-ethyl]-(tetrahydrofuran-3-ylmethyl)amino]-N,N-dimethyl-acetamide hydrochloride]
  effect on amphetamine-chlordiazepoxide induced increase in locomotor activity: preventing the amphetamine-chlordiazepoxide induced increase in locomotor activity
